The record followed here is US9795600B2, “Method for treating abnormal β-amyloid mediated diseases” (NATIONAL TAIWAN NORMAL UNIVERSITY, priority 2014, dated 2017).

The test system of assay [1] is mouse hippocampal primary culture. Put plainly: Mouse hippocampal primary culture under oligomeric Aβ toxicity. The note with it: 1, 10 or 30 μM, oligomeric Aβ 1 μM, vs. Aβ alone; for total cells (DAPI staining) against oligomeric Aβ toxicity: FIG. 7(A); for mature neurons (NeuN staining) against oligomeric Aβ toxicity: FIG. 7(B); for synaptophysin level against oligomeric Aβ toxicity: FIG. 7(F); for neurite outgrowth (process, branch, length; MAP2 staining) against oligomeric Aβ toxicity: FIGS. 7(C)-(E). Type of assay: cell-based. The method, then: Postnatal day 0-1 mouse hippocampus was isolated for primary culture, and used to confirm the neuroprotective potential of the compounds of the present invention. Oligomeric Aβ (1 μM) was applied to the primary culture after the indolylquinoline compound (compounds 1, 2, 6 and 7) administration (1, 10, or 30 μM) at day 9. Cells were harvested 1 hr later for immunocytochemical analysis and quantitated the total cell number (as shown in FIG. 7(A), by DAPI staining), mature neuron number (as shown in FIG. 7(B), by NeuN antibody staining), neurite process (as shown in FIG. 7(C), by MAP2 antibody staining), neurite branch (as shown in FIG. 7(D), by MAP2 antibody staining), neurite length (as shown in FIG. 7(E), by MAP2 antibody staining), and synaptophysin expression level (as shown in FIG. 7(F), by synaptophysin antibody staining) In FIG. 7(A) to (F), the relative amount of cells treated with vesicle (hexafluoroisopropanol) is set as 100%. ###, P<0.001 between cells treated with Aβ and vehicle (n=3). *, P<0.05; **, P<0.01; ***, P<0.001 between cells treated with Aβ combined the compound of the present invention and Aβ alone (n=3).

The target of a further assay is T1, Trx-His-Aβ protein (Homo sapiens, UniProt P05067).
T1 construct: the inventors overexpressed Trx-His tagged Aβ construct in E. coli; made in house; host or cells: E. coli
T1 sequence (P05067 672-713 limits assumed): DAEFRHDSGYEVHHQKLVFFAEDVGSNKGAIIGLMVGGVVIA
The experiment in a line: Trx-His-Aβ biochemical assay (thioflavin T staining). The note with it: Trx-His-Aβ 10 μM, 37° C., 48 hr, Trx-His-Aβ with 2 days' incubation = 100%. The method, then: Aggregation of β-amyloid (Aβ) was considered as target for intervention. For the biochemical assay, the inventors overexpressed Trx-His tagged Aβ construct in E. coli. After metal-affinity chromatography purification, the misfolded Trx-His-Aβ proteins can be identified by thioflavin T staining assay. The fluorescent intensity is increased after thioflavin T binds misfolded Trx-His-Aβ protein, and thus the misfolding level of Trx-His-Aβ protein can be measured. […] Then thioflavin T (10 μM) was added for 5 min and fluorescence analyzed on a microplate reader (excitation: 420 nm, emission: 485 nm). To normalize, the relative thioflavin T fluorescence of Trx-His-Aβ protein with 2 days' incubation at 37° C. is set as 100%. *, P<0.05 (n=3).

A further assay has as its system HSPB1. The experiment in a line: HSPB1 expression in Aβ-GFP SH-SY5Y cells (Western blot). Type of assay: cell-based, human. The conditions noted are these: 5 μM; uninduced cells = 100%, induced untreated cells 90%. An excerpt: The result is shown in FIG. 6, wherein the relative HSPB1 level of uninduced cells is set as 100%. *, P<0.05 between induced vs uninduced cells or compound-treated vs. untreated cells (n=3).

For assay [2], the system named is Tet-On Aβ-GFP HEK-293 cells. The experiment in a line: Tet-On Aβ-GFP HEK-293 cell assay (GFP fluorescence, HCA). Type of assay: cell-based, human. The conditions noted are these: 8 hr pretreatment, Dox 64 hr, untreated cells = 100%. From the text:
For cell assay, we used a HEK-293 cell clone (human embryonic kidney cells) with Tet-On Aβ-GFP expression as a screening platform. GFP fluorescence was used to reflect Aβ aggregation status as Aβ aggregated rapidly to cause the fused GFP misfolded. Inhibition of Aβ aggregation may improve GFP misfolding, leading to increasing fluorescence on Aβ-GFP expressing cells. Tet-On Aβ-GFP HEK-293 cells were pretreated with different concentrations of compounds 1, 2, 6, 7 and curcumin for 8 hr before inducing Aβ-GFP expression. Then doxycycline (Dox) (10 μM) was added to the medium for 64 hr to induce Aβ-GFP expression, and GFP fluorescence was assessed by a high-content analysis (HCA) system (ImageXpressMICRO, available from Molecular Devices). To normalize, the relative GFP fluorescence of untreated cells (untreated with compounds 1, 2, 6 and 7, and curcumin) is set as 100%. *, P<0.05 as compared to the untreated cells; #, P<0.05 as compared to the same concentration curcumin-treated cells (n=3).

The test system of assay [3] is Tet-On Aβ-GFP SH-SY5Y cells. Put plainly: Neurite outgrowth in Tet-On Aβ-GFP SH-SY5Y cells (TUBB3 immunostaining, HCA). The note with it: 5 μM; Dox 6 days; uninduced cells = 100%, induced untreated cells 87%. The class given is cell-based, human. The method, then:
Tet-On Aβ human neuroblastoma SH-SY5Y cells were used to examine the neuroprotective potential of the compounds of the present invention. Tet-On Aβ-GFP SH-SY5Y cells were plated into 24-well plates with 10 μM retinoic acid (RA), grown for 24 hr and treated with tested indolylquinoline compounds 1, 2, 6 and 7 (5 μM) for 8 hr. Then doxycycline (10 μM) was added to the medium to for 6 days. Neurite outgrowth was assessed after TUBB3 immunostaining, and examined with the HCA system. The result is shown in FIG. 5, wherein the relative neurite outgrowth of uninduced cells (untreated with Dox) is set as 100%. *, P<0.05 between induced vs. uninduced cells or compound-treated vs. untreated cells (n=3).

Assay [4] concerns Tet-On Aβ-GFP HEK-293 cells. Put plainly: ROS assay in Tet-On Aβ-GFP HEK-293 cells. The class given is cell-based, human. The note with it: 5 μM; uninduced cells = 100%, induced untreated cells 128%. The procedure:
Given that Aβ deposition causes cell death via a number of potential mechanisms including oxidative stress, the inventor also performed ROS assay with curcumin or synthetic indolylquinoline compounds 1, 2, 6 and 7 treatment (5 μM).

Where [5] appears, read: 1.2˜5.0 μM, above 80% of viable cells.

The structures appear in SMILES notation.

Take `CC(=O)C(=Cc1ccccc1[N+](=O)[O-])Cc1c[nH]c2ccccc12` [compound 1]: in assay [1], the “total cells (DAPI staining) against oligomeric Aβ toxicity” value (“total cells (DAPI staining)” below) is reported as “significantly improved”; the “mature neurons (NeuN staining) against oligomeric Aβ toxicity” value (“mature neurons (NeuN staining)” for short) is recorded as “significantly improved”; the “synaptophysin level against oligomeric Aβ toxicity” value (“synaptophysin level” for short) is on record as “significantly improved”; the “neurite outgrowth (process, branch, length; MAP2 staining) against oligomeric Aβ toxicity” value is “significantly improved”. The “relative thioflavin T fluorescence (misfolded Trx-His-Aβ aggregation)” value at Trx-His-Aβ protein (20 μM compound) was 79%. Besides, in the assay with HSPB1, the “relative HSPB1 level” value came out at 126%. The “relative GFP fluorescence (Aβ-GFP)” value in assay [2] (setting [5]) was 112˜129%.

Consider `CC(=O)C(=Cc1ccccc1[N+](=O)[O-])Cc1c(C)[nH]c2ccccc12` [compound 2], for which, in assay [1], the “total cells (DAPI staining)” value is listed as “significantly improved”; the “mature neurons (NeuN staining)” value is on record as “significantly improved”; the “synaptophysin level” value is “significantly improved”; the “neurite outgrowth (process, branch, length; MAP2 staining) against oligomeric Aβ toxicity” value is given as “significantly improved”. For the same compound, the “relative thioflavin T fluorescence (misfolded Trx-His-Aβ aggregation)” value at Trx-His-Aβ protein (10˜20 μM compound) is reported as 74˜70%. In addition, in the assay with HSPB1, the “relative HSPB1 level” value was found to be 112%. The “relative GFP fluorescence (Aβ-GFP)” value in assay [2] (1.2˜2.5 μM, above 80% of viable cells) is listed as 107˜120%.

In the case of `CCc1cccc2c(CC(=Cc3ccccc3[N+](=O)[O-])C(C)=O)c[nH]c12` [compound 6], in assay [1], the “total cells (DAPI staining)” value is on record as “significantly improved”; the “mature neurons (NeuN staining)” value is on record as “significantly improved”; the “synaptophysin level” value was “significantly improved”; the “neurite outgrowth (process, branch, length; MAP2 staining) against oligomeric Aβ toxicity” value is listed as “significantly improved”. The “relative thioflavin T fluorescence (misfolded Trx-His-Aβ aggregation)” value at Trx-His-Aβ protein (5˜20 μM compound) is recorded as 90˜71%. Also, in the assay on HSPB1, the “relative HSPB1 level” value is 116%. For the same compound, the “relative GFP fluorescence (Aβ-GFP)” value in assay [2] (setting [5]) is recorded as 107˜130%.

On to `Cc1nc2ccccc2cc1Cc1c[nH]c2ccccc12` [compound 7], for which, in assay [1], the “total cells (DAPI staining)” value is on record as “significantly improved”; the “mature neurons (NeuN staining)” value is “significantly improved”; the “synaptophysin level” value is on record as “significantly improved”; the “neurite outgrowth (process, branch, length; MAP2 staining) against oligomeric Aβ toxicity” value is on record as “significantly improved”. The “relative thioflavin T fluorescence (misfolded Trx-His-Aβ aggregation)” value at Trx-His-Aβ protein (20 μM compound) is given as 84%. Also, the “relative HSPB1 level” value with HSPB1 is reported as 117%. Besides, the “relative GFP fluorescence (Aβ-GFP)” value in assay [2] (1.2 μM, above 80% of viable cells) is reported as 105%.

As to `COc1cc(/C=C/C(=O)CC(=O)/C=C/c2ccc(O)c(OC)c2)ccc1O` [curcumin, reference compound], in assay [3], the relative neurite outgrowth was determined as 105%. For the same compound, at Trx-His-Aβ protein (5˜20 μM compound), the “relative thioflavin T fluorescence (misfolded Trx-His-Aβ aggregation)” value is reported as 76˜54%. The “relative HSPB1 level” value in the assay with HSPB1 stood at 123%. Moreover, the “relative ROS level” value in assay [4] was 86%. Also, the “relative GFP fluorescence (Aβ-GFP)” value in assay [2] (2.5˜5.0 μM) is 111˜122%.
